Assay results as given in publication PMC4457528, “Identification of Novel Small Molecule Inhibitors of Oncogenic RET Kinase” (PLoS ONE, 2015).
Like-named read-outs stand apart in the source and are kept apart here.

Assays:
Assay in all cases: KinomeScan kinase panel, single concentration 10 µM
Type in all cases: binding
KinomeScan kinase panel [1] = molecular target: T1, KinomeScan kinase panel (Homo sapiens, UniProt P31751); settings: AKT2, 10 µM; read-out: score (%)
T1 construct: purchased DiscoveRx (KinomeScan)
T1 sequence (P31751 whole entry): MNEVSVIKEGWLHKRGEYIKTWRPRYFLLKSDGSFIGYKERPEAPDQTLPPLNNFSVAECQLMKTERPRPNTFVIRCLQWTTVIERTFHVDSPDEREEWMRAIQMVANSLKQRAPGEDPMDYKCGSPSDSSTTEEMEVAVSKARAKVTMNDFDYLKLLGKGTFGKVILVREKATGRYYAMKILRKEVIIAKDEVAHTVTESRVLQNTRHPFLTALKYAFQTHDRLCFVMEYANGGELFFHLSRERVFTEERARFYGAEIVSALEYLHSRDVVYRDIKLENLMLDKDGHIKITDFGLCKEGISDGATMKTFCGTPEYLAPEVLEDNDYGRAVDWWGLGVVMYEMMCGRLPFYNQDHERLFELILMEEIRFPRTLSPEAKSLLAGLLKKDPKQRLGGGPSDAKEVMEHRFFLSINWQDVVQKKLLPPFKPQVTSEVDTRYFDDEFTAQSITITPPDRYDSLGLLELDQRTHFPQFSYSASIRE

KinomeScan kinase panel [2] = molecular target: T2, KinomeScan kinase panel (Homo sapiens, UniProt P08069); settings: IGF1R, 10 µM; read-out: score (%)
T2 construct: purchased DiscoveRx (KinomeScan)
T2 sequence (P08069 31-1367): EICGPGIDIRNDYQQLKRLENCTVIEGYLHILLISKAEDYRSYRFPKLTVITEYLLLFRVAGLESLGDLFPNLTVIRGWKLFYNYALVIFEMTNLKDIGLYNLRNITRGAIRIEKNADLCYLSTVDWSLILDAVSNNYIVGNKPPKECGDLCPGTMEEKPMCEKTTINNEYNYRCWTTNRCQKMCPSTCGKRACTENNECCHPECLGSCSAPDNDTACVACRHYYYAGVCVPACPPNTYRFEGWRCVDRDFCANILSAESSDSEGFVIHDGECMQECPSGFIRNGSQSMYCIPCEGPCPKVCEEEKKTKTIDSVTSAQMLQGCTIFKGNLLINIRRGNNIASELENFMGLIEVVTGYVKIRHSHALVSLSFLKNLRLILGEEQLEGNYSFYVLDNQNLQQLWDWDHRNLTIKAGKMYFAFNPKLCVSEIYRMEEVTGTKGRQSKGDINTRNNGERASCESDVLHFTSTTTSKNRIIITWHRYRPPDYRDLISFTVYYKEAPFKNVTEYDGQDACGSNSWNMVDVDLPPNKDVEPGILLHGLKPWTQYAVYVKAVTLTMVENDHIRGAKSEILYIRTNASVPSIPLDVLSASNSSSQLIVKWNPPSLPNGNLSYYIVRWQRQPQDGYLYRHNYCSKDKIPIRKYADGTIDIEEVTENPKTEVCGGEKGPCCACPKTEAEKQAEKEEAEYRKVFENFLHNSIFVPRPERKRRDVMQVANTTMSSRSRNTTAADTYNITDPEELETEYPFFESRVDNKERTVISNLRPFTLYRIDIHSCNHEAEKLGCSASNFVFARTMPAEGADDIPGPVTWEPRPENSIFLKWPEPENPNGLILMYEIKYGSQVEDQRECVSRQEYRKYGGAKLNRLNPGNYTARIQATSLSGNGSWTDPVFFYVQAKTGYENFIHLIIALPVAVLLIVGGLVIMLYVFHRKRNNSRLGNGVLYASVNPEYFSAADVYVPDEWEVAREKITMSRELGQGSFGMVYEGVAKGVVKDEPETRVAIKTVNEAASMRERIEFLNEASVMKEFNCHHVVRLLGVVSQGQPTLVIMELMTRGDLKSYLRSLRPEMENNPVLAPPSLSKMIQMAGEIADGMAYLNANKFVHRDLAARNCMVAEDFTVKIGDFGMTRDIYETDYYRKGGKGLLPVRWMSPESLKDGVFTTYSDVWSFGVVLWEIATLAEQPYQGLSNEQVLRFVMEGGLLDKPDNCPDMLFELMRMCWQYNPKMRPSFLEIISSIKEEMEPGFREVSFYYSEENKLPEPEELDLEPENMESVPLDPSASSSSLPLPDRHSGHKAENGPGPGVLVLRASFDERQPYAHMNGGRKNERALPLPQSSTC

KinomeScan kinase panel [3] = molecular target: T3, KinomeScan kinase panel (Homo sapiens, UniProt P45984); settings: JNK2, 10 µM
T3 construct: purchased DiscoveRx (KinomeScan)
T3 sequence (P45984 whole entry): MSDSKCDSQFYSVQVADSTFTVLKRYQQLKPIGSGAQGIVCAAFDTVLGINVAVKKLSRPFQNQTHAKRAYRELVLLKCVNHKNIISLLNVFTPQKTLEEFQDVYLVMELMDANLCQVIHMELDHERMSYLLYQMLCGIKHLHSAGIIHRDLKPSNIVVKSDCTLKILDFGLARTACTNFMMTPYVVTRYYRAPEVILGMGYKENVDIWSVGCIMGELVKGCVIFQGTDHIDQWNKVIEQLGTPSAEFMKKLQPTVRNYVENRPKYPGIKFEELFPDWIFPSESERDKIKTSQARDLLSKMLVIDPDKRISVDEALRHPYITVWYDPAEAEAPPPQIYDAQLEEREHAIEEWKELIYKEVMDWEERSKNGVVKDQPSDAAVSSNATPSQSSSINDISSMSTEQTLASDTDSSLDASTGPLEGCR

KinomeScan kinase panel [4] = molecular target: T4, KinomeScan kinase panel (Homo sapiens, UniProt Q9BYT3); settings: read-out: score (%)
T4 construct: purchased DiscoveRx (KinomeScan)
T4 sequence (Q9BYT3 whole entry): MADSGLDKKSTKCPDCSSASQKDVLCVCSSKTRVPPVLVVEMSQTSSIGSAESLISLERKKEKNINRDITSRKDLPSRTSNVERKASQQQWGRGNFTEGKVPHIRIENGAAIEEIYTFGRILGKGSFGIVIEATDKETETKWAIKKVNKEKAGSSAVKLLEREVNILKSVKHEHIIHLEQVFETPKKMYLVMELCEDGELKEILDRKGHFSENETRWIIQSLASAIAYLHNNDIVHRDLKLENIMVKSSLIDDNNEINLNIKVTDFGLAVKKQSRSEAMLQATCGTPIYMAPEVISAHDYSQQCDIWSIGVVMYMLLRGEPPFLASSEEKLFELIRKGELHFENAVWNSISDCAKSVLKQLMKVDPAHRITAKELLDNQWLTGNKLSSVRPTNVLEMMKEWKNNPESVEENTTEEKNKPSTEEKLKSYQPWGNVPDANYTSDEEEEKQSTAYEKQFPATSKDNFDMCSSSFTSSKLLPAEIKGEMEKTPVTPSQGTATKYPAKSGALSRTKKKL

KinomeScan kinase panel [5] = molecular target: T5, KinomeScan kinase panel (Homo sapiens, UniProt P46734); settings: MEK3, 10 µM; read-out: score (%)
T5 construct: purchased DiscoveRx (KinomeScan)
T5 sequence (P46734 1-347): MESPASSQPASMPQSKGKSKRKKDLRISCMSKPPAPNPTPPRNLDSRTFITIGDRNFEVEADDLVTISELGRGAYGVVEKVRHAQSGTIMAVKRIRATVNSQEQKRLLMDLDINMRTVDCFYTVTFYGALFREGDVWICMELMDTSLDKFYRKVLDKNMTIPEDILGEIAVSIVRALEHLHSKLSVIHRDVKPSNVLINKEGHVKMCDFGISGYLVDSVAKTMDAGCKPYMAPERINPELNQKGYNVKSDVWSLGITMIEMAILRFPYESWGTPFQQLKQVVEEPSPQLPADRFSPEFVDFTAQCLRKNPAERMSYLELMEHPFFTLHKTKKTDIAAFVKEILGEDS

KinomeScan kinase panel [6] = molecular target: T6, KinomeScan kinase panel (Homo sapiens, UniProt P10721, V559D); settings: KIT(V559D), 10 µM; read-out: score (%)
T6 construct: purchased DiscoveRx (KinomeScan)

KinomeScan kinase panel [7] = molecular target: T7, KinomeScan kinase panel (Homo sapiens, UniProt Q13976); settings: read-out: score (%)
T7 construct: purchased DiscoveRx (KinomeScan)
T7 sequence (Q13976 1-671): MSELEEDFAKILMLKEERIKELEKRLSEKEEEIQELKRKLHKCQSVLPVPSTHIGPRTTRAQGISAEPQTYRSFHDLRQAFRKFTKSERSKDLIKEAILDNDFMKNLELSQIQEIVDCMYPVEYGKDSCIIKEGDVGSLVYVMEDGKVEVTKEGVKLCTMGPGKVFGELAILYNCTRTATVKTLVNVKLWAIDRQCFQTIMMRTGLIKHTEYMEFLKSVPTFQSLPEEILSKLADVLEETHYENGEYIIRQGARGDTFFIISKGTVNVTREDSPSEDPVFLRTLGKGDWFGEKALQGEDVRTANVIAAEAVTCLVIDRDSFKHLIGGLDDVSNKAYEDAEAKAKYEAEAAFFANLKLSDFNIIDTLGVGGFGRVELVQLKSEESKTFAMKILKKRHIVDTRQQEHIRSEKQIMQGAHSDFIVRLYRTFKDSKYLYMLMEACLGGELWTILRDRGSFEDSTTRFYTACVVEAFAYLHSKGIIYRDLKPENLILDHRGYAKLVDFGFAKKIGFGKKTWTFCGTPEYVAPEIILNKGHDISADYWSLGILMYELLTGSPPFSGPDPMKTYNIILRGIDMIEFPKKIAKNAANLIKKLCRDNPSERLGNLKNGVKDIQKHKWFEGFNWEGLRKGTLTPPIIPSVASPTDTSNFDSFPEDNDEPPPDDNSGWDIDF

KinomeScan kinase panel [8] = molecular target: T8, KinomeScan kinase panel (Homo sapiens, UniProt P80192); settings: MLK1, 10 µM; read-out: score (%)
T8 construct: purchased DiscoveRx (KinomeScan)

KinomeScan kinase panel [9] = molecular target: T9, KinomeScan kinase panel (Homo sapiens, UniProt Q8TDC3); settings: BRSK1, 10 µM; read-out: score (%)
T9 construct: purchased DiscoveRx (KinomeScan)
T9 sequence (Q8TDC3 1-778): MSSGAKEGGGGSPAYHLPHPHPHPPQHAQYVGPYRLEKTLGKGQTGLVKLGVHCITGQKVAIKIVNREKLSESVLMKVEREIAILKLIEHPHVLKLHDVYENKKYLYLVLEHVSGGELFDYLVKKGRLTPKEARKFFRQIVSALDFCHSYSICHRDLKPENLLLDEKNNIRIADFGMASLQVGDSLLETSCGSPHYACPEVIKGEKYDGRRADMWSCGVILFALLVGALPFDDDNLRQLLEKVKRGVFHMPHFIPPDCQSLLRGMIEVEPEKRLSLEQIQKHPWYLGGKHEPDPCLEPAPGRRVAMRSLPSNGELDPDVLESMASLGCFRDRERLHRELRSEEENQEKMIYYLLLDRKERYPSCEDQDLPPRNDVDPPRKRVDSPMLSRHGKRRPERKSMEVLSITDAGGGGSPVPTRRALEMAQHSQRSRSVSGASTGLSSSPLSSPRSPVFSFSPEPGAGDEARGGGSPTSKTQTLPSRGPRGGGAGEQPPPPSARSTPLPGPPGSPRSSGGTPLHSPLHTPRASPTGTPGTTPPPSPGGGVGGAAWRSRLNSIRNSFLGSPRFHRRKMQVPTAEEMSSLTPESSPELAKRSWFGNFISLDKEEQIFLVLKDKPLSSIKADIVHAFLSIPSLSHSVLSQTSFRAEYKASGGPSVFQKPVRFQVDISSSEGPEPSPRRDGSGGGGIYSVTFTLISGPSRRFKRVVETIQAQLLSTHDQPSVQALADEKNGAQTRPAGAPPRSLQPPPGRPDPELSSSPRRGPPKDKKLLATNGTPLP

KinomeScan kinase panel [10] = molecular target: T10, KinomeScan kinase panel (Homo sapiens, UniProt Q6DT37); settings: DMPK2, 10 µM; read-out: score (%)
T10 construct: purchased DiscoveRx (KinomeScan)
T10 sequence (Q6DT37 whole entry): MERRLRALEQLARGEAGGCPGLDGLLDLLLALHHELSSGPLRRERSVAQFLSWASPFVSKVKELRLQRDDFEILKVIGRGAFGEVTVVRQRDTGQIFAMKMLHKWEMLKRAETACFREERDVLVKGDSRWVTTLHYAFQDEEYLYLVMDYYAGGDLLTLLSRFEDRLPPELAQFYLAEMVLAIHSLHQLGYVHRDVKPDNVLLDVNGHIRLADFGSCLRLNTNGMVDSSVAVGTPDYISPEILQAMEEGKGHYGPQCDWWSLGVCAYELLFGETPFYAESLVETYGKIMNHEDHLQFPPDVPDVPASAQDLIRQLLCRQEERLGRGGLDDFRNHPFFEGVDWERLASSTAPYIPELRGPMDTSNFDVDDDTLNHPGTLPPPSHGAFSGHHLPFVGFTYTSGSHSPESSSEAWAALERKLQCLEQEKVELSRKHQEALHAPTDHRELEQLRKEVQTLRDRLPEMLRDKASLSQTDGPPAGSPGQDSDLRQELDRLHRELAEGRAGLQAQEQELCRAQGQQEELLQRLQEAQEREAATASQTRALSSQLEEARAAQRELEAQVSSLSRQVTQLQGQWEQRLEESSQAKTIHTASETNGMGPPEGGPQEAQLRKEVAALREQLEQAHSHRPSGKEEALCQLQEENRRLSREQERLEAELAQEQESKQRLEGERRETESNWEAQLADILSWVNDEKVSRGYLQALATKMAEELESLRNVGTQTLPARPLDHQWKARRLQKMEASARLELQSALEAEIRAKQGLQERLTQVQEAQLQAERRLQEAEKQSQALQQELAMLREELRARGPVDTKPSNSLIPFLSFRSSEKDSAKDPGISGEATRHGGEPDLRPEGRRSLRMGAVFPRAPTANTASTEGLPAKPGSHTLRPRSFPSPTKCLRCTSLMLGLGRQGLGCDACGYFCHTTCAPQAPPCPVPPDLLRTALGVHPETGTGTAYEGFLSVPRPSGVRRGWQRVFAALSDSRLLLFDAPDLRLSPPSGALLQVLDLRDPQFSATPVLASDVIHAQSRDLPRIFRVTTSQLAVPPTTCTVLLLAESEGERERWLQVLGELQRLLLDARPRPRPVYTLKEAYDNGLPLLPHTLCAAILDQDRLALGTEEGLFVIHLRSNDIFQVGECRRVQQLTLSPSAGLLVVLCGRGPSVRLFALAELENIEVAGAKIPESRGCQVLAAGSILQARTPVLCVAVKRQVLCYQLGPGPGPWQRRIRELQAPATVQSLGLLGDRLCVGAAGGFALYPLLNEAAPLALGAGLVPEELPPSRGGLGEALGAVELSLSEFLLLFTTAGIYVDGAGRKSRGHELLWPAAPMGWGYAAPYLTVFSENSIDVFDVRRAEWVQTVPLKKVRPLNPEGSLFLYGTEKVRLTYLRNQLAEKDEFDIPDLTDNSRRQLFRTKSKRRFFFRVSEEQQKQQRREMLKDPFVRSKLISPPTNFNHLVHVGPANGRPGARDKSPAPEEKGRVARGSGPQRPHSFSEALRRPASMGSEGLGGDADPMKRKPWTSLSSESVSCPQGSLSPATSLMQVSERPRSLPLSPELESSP

KinomeScan kinase panel [11] = molecular target: T11, KinomeScan kinase panel (Homo sapiens, UniProt O00506); settings: kinase YSK1; 10 µM; read-out: score (%)
T11 construct: purchased DiscoveRx (KinomeScan)
T11 sequence (O00506 whole entry): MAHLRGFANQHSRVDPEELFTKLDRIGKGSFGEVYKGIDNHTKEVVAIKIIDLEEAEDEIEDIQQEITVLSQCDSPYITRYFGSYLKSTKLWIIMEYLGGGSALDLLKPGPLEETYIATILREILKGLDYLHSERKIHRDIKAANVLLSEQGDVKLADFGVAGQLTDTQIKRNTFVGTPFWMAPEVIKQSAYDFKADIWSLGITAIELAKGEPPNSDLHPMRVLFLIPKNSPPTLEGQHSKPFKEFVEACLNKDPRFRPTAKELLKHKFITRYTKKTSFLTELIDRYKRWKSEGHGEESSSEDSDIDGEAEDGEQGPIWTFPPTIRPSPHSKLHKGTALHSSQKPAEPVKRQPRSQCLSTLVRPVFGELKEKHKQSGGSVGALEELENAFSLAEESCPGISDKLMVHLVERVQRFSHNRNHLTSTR

| Structure (SMILES) | remaining binding at 10 µM (KinomeScan kinase panel [1]) | remaining binding at 10 µM (KinomeScan kinase panel [2]) | score (%) (KinomeScan kinase panel [3]) | remaining binding at 10 µM (KinomeScan kinase panel [4]; kinase STK33, 10 µM) | remaining binding at 10 µM (KinomeScan kinase panel [5]) | remaining binding at 10 µM (KinomeScan kinase panel [6]) | remaining binding at 10 µM (KinomeScan kinase panel [7]; PRKG1, 10 µM) | remaining binding at 10 µM (KinomeScan kinase panel [8]) | remaining binding at 10 µM (KinomeScan kinase panel [9]) | remaining binding at 10 µM (KinomeScan kinase panel [10]) | remaining binding at 10 µM (KinomeScan kinase panel [11]) | remaining binding at 10 µM (KinomeScan kinase panel [4]; STK33, 10 µM) | remaining binding at 10 µM (KinomeScan kinase panel [7]; kinase PRKG1, 10 µM) |
| --- | --- | --- | --- | --- | --- | --- | --- | --- | --- | --- | --- | --- | --- |
| CCN1CCN(Cc2ccc(NC(=O)c3ccc(C)c(NC(=O)c4cncc(-c5cccs5)c4)c3)cc2C(F)(F)F)CC1 [ALW-II-41-27] | > 30% | > 30% | 0.25% | > 30% | > 30% | 0.1% | > 30% | > 30% | > 30% | > 30% | > 30% |  |  |
| CCN1CCN(Cc2ccc(NC(=O)c3ccc(C)c(/C=C/c4cnc5[nH]ccc5c4Cl)c3)cc2C(F)(F)F)CC1 [HG-6-63-01, (E)-3-(2-(4-chloro-1H-pyrrolo[2,3-b]pyridin-5-yl)vinyl)-N-(4-((4-ethylpiperazin-1-yl)methyl)-3-(trifluoromethyl)phenyl)-4-methylbenzamide] | > 30% | > 30% | 1.1% |  | > 30% | 0% | > 30% | 0.6% | > 30% | 14% | > 30% | 23% |  |
| CCN1CCN(Cc2ccc(NC(=O)c3ccc(C)c(C#Cc4cccnc4)c3)cc2C(F)(F)F)CC1 [XMD15-44] | 30% | > 30% | 0% | 14% | > 30% | 0% |  | > 30% | > 30% | > 30% | 16% |  | 100% |
